Earlier results in US20020098247A1, “Methods and compositions for the improvement of insulin sensitivity, reduction of hyperglycemia, and reduction of hypercholesterolemia with chromium complexes and alpha lipoic acid” (priority 2000, published 2002).

Key:
[1] = rats, oral administration of CrCl3 with the NSAID
[2] = tested on: patients with Type I and Type II diabetes
[3] = tested on: isolated vasculature of diabetic rats
[4] = tested on: patients with Type II diabetes; details: 600 mg tid orally, three weeks
[5] = tested on: Patients with Type II diabetes with symptomatic polyneuropathy; details: intravenous, three weeks
[6] = tested on: patients with Type II diabetes; details: 600 mg intravenously three weeks, then 6 months tid oral

Q: With CC(=O)Oc1ccccc1C(=O)O [aspirin, acetylsalicylic acid] as the compound, how does the chromium absorption [1] read?
A: facilitated

Q: Which “sensory nerve and tibial nerve conduction velocities” value ([2]; 600 or 1,200 mg per day, intravenous five days then oral two years) does the source give for O=C(O)CCCCC1CCSS1 (stereo not drawn) [alpha-lipoic acid] here?
A: improvements

Q: And the “Neuropathy Disability Score values” ([2]; 600 or 1,200 mg per day, two years)?
A: not significantly affected

Q: And the “incidence or severity of side effects vs placebo” value ([2]; two-year study)?
A: no significant differences

Q: And the “prevention of the deficit in acetylcholine-induced relaxation in isolated vasculature” value [3]?
A: 94%

Q: And the “TSS in the feet and NDS scores” value [4]?
A: improvements

Q: And the “side effects vs placebo” value [4]?
A: No significant differences

Q: What about the “frequency of adverse effects” value ([5]; 1,200 mg dose group vs other groups) of the same compound?
A: slightly greater rate of gastrointestinal side effects

Q: And the “decrease of Total Symptom Score (TSS) in the feet” value ([5]; two higher doses (600, 1,200 mg per day))?
A: approximately 60%

Q: What about the “neuropathy as evidenced by the TSS vs placebo” value [6] of the same compound?
A: significantly lessened

Q: And the “side effects between groups” value [6]?
A: no significant differences
